ChEMBL document CHEMBL3875184, “Biosynthetic approaches to creating bioactive fungal metabolites: Pathway engineering and activation of secondary metabolism” (Bioorg Med Chem Lett, 2016)

Assays:
[1] = Cytotoxicity against human HeLa cells assessed as reduction in cell viability after 48 hrs by SF-based cell counting method; type: functional
[2] = (§1) Inhibition of Drosophila Kinesin-1 assessed as reduction in microtubule-stimulated ATPase activity preincubated for 15 mins followed by microtubule addition in the presence of ATP after 6 mins by malachite green method
[3] = biological target: T1, Kinesin-like protein KIF11 (Homo sapiens, UniProt P52732); assay: as §1, with “wild type eXact-tagged human Eg5 motor domain (1 to 368 residues) expressed in Escherichia coli BL21(DE3)” for “Drosophila Kinesin-1”
T1 sequence (P52732 whole entry): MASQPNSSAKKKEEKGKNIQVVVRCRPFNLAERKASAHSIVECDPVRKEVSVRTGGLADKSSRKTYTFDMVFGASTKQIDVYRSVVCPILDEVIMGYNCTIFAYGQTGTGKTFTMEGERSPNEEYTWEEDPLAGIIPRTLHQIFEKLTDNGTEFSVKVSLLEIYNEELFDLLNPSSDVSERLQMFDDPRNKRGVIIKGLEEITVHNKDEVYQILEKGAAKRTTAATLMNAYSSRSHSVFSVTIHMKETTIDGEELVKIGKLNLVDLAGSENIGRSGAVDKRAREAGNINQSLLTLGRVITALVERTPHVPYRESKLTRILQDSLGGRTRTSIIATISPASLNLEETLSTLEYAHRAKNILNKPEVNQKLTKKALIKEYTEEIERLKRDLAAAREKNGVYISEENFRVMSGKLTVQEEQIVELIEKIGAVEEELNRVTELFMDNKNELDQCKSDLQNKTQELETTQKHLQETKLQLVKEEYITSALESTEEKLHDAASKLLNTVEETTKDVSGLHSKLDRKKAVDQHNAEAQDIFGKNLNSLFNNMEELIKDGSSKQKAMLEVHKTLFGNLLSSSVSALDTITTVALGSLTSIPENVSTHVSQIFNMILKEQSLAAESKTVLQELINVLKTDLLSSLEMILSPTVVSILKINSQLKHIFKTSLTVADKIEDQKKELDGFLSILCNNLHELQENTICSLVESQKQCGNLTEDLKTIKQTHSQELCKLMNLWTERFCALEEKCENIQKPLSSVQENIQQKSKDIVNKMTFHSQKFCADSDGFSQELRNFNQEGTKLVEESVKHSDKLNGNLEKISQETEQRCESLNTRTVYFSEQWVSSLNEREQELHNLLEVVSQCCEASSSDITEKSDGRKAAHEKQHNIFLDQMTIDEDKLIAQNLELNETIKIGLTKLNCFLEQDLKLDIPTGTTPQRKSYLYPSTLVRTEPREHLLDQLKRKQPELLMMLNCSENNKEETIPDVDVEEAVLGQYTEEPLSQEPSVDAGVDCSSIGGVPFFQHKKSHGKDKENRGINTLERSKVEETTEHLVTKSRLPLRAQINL

[4] = Cytotoxicity against human Jurkat cells; type: functional, cell-based
[5] = Cytotoxicity against human HeLa cells; type: functional, cell-based
[6] = Cytotoxicity against human MCF7 cells; type: functional, cell-based
[7] = Cytotoxicity against human HT-29 cells; type: functional, cell-based
[8] = biological target: T2, Broad substrate specificity ATP-binding cassette transporter ABCG2 (Homo sapiens, UniProt Q9UNQ0); assay: Inhibition of BCRP in human K562 cells assessed as potentiation of SN38-mediated growth inhibition at 3 uM after 4 days by coulter counter method; type: cell-based; settings: k562, 96 h
T2 sequence (Q9UNQ0 whole entry): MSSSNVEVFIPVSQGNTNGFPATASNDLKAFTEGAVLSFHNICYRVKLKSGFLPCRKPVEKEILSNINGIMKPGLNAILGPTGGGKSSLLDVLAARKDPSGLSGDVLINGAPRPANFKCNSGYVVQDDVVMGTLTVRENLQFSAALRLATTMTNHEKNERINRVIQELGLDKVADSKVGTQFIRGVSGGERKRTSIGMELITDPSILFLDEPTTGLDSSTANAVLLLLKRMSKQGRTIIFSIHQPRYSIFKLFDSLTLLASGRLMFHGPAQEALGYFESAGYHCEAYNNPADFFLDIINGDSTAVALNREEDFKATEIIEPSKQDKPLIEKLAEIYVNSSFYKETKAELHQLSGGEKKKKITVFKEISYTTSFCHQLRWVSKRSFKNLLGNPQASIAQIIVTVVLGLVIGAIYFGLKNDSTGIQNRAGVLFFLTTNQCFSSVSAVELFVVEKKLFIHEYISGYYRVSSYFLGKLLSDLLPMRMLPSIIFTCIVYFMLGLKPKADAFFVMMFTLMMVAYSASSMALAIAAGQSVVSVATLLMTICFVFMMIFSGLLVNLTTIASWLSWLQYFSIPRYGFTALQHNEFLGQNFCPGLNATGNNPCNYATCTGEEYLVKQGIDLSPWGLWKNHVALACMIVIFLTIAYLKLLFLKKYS

[9] = biological target: T2, Broad substrate specificity ATP-binding cassette transporter ABCG2; assay: Inhibition of BCRP (unknown origin)-dependent ATPase activity at 50 uM after 30 mins by malachite green method; settings: 0.5 h

SMILES	IC50 [1] [µM]	IC50 [2] [µM]	IC50 [3] [µM]	IC50 [4] [µM]	IC50 [5] [µM]	IC50 [6] [µM]	IC50 [7] [µM]	inhibition (INH) [8]	inhibition (INH) [9]
CC(C)(O)[C@@H]1CC(=O)[C@]2(C)[C@H](CC[C@@]3(C)[C@H]2CC[C@H]2Cc4c([nH]c5ccccc45)[C@@]23C)O1	2.9	> 100	16.5						
COc1ccc2c3c(n(CC=C(C)C)c2c1)[C@H](C=C(C)C)N1C(=O)[C@@H]2CCCN2C(=O)[C@]1(O)[C@H]3O				5 to 15	5 to 15	5 to 15	5 to 15	Active	Active
CC(C)=C[C@H]1c2[nH]c3ccccc3c2C[C@H]2C(=O)N3CCC[C@H]3C(=O)N21 [DEMETHOXYFUMITREMORGIN C]								Active	Active
COc1ccc2c3c([nH]c2c1)[C@H](C=C(C)C)N1C(=O)[C@@H]2CCCN2C(=O)[C@@H]1C3 [FUMITREMORGIN]								Active	Active
COc1ccc2c3c([nH]c2c1)[C@H](C=C(C)C)N1C(=O)[C@@H]2CCCN2C(=O)[C@]1(O)[C@H]3O								Active	Active
COc1ccc2c3c4n(c2c1)[C@@H](C=C(C)C)OOC(C)(C)C[C@@H]4N1C(=O)[C@@H]2CCCN2C(=O)[C@]1(O)[C@H]3O				20 to 30	20 to 30	20 to 30	20 to 30	Active	Active
CC(C)(O)[C@@H]1C[C@@H](O)[C@]2(C)[C@H](CC[C@@]3(C)[C@H]2CC[C@H]2Cc4c([nH]c5ccccc45)[C@@]23C)O1 [TERPENDOLE E]	12.1	> 100	34.7						
